Molecular target: T1, γ-secretase (Homo sapiens, UniProt P49768)
T1 construct: Human SH-SY5Y neuroblastoma cells overexpressing the direct γ-secretase substrate SPA4CT; endogenous in cells; host or cells: human SH-SY5Y neuroblastoma cells (stably overexpressing the substrate SPA4CT, induced with sodium butyrate)
Assay: Cell-Based γ-Secretase Assay (Aβ(40)/Aβ(42) in media of SH-SY5Y cells overexpressing SPA4CT)
Conditions: Human SH-SY5Y neuroblastoma cells overexpressing SPA4CT; values given as ranges; read-out: IC50 values for Aβ(1-42) inhibition
Protocol: Cell-Based γ-Secretase Assay
Human SH-SY5Y neuroblastoma cells overexpressing the direct γ-secretase substrate SPA4CT were induced with sodium butyrate (10 mM) for 4 hours prior to plating. Cells were plated at 35,000 cells/well/100 μl in 96-well plates in phenol red-free MEM/10% FBS, 50 mM HEPES, 1% Glutamine and incubated for 2 hrs at 37° C., 5% CO2.
Compounds for testing were diluted into Me2SO to give a ten point dose-response curve. Typically 10 μl of these diluted compounds in Me2SO were further diluted into 182 μl dilution buffer (phenol red-free MEM/10% FBS, 50 mM HEPES, 1% Glutamine) and 10 μl of each dilution was added to the cells in 96-well plates (yielding a final Me2SO concentration of 0.5%). Appropriate vehicle and inhibitor controls were used to determine the window of the assay.
After incubation overnight at 37° C., 5% CO2, 10 μl and 50 μl media were transferred into a fresh Costar round-bottom 96-well plate for detection of Aβ(40) and Aβ(42) peptides, respectively. 40 μl Origen buffer (PBS, 2% BSA, 0.2% Tween-20) was added to the Aβ(40) wells followed by the addition of 25 μl the respective antibody premixes to the wells: • Aβ(40) premix: 1 μg/ml ruthenylated G2-10 antibody, 4 μg/ml biotinylated 4G8 antibody diluted in Origen buffer • Aβ(42) premix: 0.5 μg/ml ruthenylated G2-11 antibody, 4 μg/ml biotinylated 4G8 antibody diluted in Origen buffer
(Biotinylated 4G8 Antibody Supplied by Signet Pathology Ltd; G2-10 and G2-11 Antibodies Supplied by Chemicon)
After overnight incubation of the assay plates on a shaker at 4° C., the Origen M8 Analyser (Igen Inc.) was calibrated according to the manufacturer's instructions. 25 μl of streptavidin magnetic bead (Dynal) premix (400 μg/ml streptavidin beads/ml in Origen buffer) was added to the assay plates and incubated on a shaker for 15 minutes. 150 μl Origen buffer was added to each well and the plates were read on the Origen M8 Analyser according to the manufacturer's instructions.
Cell viability was measured in the corresponding cells after removal of the media for the Aβ assays by a colorimetric cell proliferation assay (CellTiter 96™ AQ assay, Promega) utilizing the bioreduction of MTS (Owen's reagent) to formazan according to the manufacturer's instructions. Briefly, 5 μl of 10×MTS/PES was added to the remaining 50 μl of media before returning to the incubator. The optical density was read at 495 nm after ˜4 hours.
LD50 and IC50 values for inhibition of Aβ(40) and Aβ(42) were calculated by nonlinear regression fit analysis using the appropriate software (eg. Excel fit). The total signal and the background were defined by the corresponding Me2SO and inhibitor controls.

| SMILES | IC50 |
| --- | --- |
| CC(C)(C)C#C[C@H](CCCC(C)(C)C)N1CCC(F)(F)[C@H](CC(=O)O)[C@H]1c1ccc(C(F)(F)F)cc1 (relative stereo) [Example 17, {1-[1-(3,3-dimethylbut-1-yn-1-yl)-5,5-dimethylhexyl]-4,4-difluoro-2-[4-(trifluoromethyl)phenyl]piperidin-3-yl}acetic acid] | 1 to 1.5 µM |
| CC(C)CC[C@H](c1ccc(C(F)(F)F)cc1)N1CCC(F)(F)[C@H](CC(=O)O)[C@H]1c1ccc(C(F)(F)F)cc1 (relative stereo) [Example 8, {4,4-difluoro-1-(4-methyl-1-[4-(trifluoromethyl)phenyl]pentyl}-2-[4-(trifluoromethyl)phenyl]piperidin-3-yl}acetic acid] | 2 to 3 µM |
| CC(C)(C)CC[C@H](CCC(F)(F)F)N1CCC(F)(F)[C@H](CC(=O)O)[C@H]1c1ccc(C(F)(F)F)cc1 (single isomer, unassigned) [Example 22, {1-[4,4-dimethyl-1-(3,3,3-trifluoropropyl)pentyl]-4,4-difluoro-2-[4-(trifluoromethyl)phenyl]piperidin-3-yl}acetic acid] | 1 to 1.5 µM |
| CC(C)(C)C#C[C@H](CCC(F)(F)F)N1CCC(F)(F)[C@H](CC(=O)O)[C@H]1c1ccc(C(F)(F)F)cc1 (single isomer, unassigned) [Example 19, {1-[4,4-dimethyl-1-(3,3,3-trifluoropropyl)pent-2-yn-1-yl]-4,4-difluoro-2-[4-(trifluoromethyl)phenyl]piperidin-3-yl}acetic acid] | < 0.5 µM |
| CC(C)(C)/C=C\[C@H](CCC(F)(F)F)N1CCC(F)(F)[C@H](CC(=O)O)[C@H]1c1ccc(C(F)(F)F)cc1 [Example 6, {1-[(2Z)-4,4-dimethyl-1-(3,3,3-trifluoropropyl)pent-2-en-1-yl]-4,4-difluoro-2-[4-(trifluoromethyl)phenyl]piperidin-3-yl}acetic acid] | 1 to 1.5 µM |
| CC(C)(C)CC[C@H](CCC(F)(F)F)N1CCC(F)(F)[C@H](CC(=O)O)[C@H]1c1ccc(C(F)(F)F)cc1 (single isomer, unassigned) [Example 18, {1-[4,4-dimethyl-1-(3,3,3-trifluoropropyl)pentyl]-4,4-difluoro-2-[4-(trifluoromethyl)phenyl]piperidin-3-yl}acetic acid] | < 0.5 µM |
| C=C(C)C#C[C@H](CCC(=C)C)N1CCC(F)(F)[C@H](CC(=O)O)[C@H]1c1ccc(C(F)(F)F)cc1 (relative stereo) [Example 7, {4,4-difluoro-1-[4-methyl-1-(3-methylbut-3-en-1-yl)pent-4-en-2-yn-1-yl]-2-[4-(trifluoromethyl)phenyl]piperidin-3-yl}acetic acid] | 1.5 to 2 µM |
| CC(C)(C)CC[C@H](CC(C)(C)C)N1CCC(F)(F)[C@H](CC(=O)O)[C@H]1c1ccc(C(F)(F)F)cc1 (relative stereo) [Example 11, {1-[1-(2,2-dimethylpropyl)-4,4-dimethylpentyl]-4,4-difluoro-2-[4-(trifluoromethyl)phenyl]-piperidin-3-yl}acetic acid] | 1.5 to 2 µM |
| CC(C)(C)/C=C\[C@H](CCC(F)(F)F)N1CCC(F)(F)[C@H](CC(=O)O)[C@H]1c1ccc(C(F)(F)F)cc1 (relative stereo) [Example 20, {1-[(2Z)-4,4-dimethyl-1-(3,3,3-trifluoropropyl)pent-2-en-1-yl]-4,4-difluoro-2-[4-(trifluoromethyl)phenyl]piperidin-3-yl}acetic acid] | < 0.5 µM |
| CC(C)(C)CCCN1[C@H](c2ccc(C(F)(F)F)cc2)[C@@H](CC(=O)O)C(F)(F)C[C@H]1c1ccc(C(F)(F)F)cc1 (relative stereo) [Example 24, {1-(4,4-dimethylpentyl)-4,4-difluoro-2,6-bis[4-(trifluoromethyl)phenyl]piperidin-3-yl}acetic acid] | 1 to 1.5 µM |
| CC(C)(C)C#CCN1[C@H](c2ccc(C(F)(F)F)cc2)[C@@H](CC(=O)O)C(F)(F)C[C@H]1c1ccc(C(F)(F)F)cc1 (relative stereo) [Example 23, {1-(4,4-dimethylpent-2-yn-1-yl)-4,4-difluoro-2,6-bis[4-(trifluoro-methyl)phenyl]piperidin-3-yl}acetic acid] | 2 to 3 µM |
| CC(C)(C)/C=C\[C@H](CC(C)(C)C)N1CCC(F)(F)[C@H](CC(=O)O)[C@H]1c1ccc(C(F)(F)F)cc1 (relative stereo) [Example 12, {1-[(2Z)-1-(2,2-dimethylpropyl)-4,4-dimethylpent-2-en-1-yl]-4,4-difluoro-2-[4-(trifluoromethyl)phenyl]piperidin-3-yl}acetic acid] | 2 to 3 µM |
| C=C(C)C#C[C@H](CCC(F)(F)F)N1CCC(F)(F)[C@H](CC(=O)O)[C@H]1c1ccc(C(F)(F)F)cc1 (relative stereo) [Example 2, {4,4-difluoro-1-[4-methyl-1-(3,3,3-trifluoropropyl)pent-4-en-2-yn-1-yl]-2-[4-(trifluoromethyl)phenyl]piperidin-3-yl}acetic acid] | 1.5 to 2 µM |
| CC(C)(C)CCC(CCC(C)(C)C)N1CCC(F)(F)[C@H](CC(=O)O)[C@H]1c1ccc(C(F)(F)F)cc1 (relative stereo) [Example 15, {1-[1-(3,3-dimethylbutyl)-4,4-dimethylpentyl]-4,4-difluoro-2-[4-(trifluoromethyl)phenyl]piperidin-3-yl}acetic acid] | 1.5 to 2 µM |
| CC(C)(C)CC[C@H](c1ccc(C(F)(F)F)cc1)N1CCC(F)(F)[C@H](CC(=O)O)[C@H]1c1ccc(C(F)(F)F)cc1 (relative stereo) [Example 1, {1-{4,4-dimethyl-1-[4-(trifluoromethyl)phenyl]pentyl}-4,4-difluoro-2-[4-(trifluoromethyl)phenyl]piperidin-3-yl}acetic acid] | 1 to 1.5 µM |
| CC(C)(C)C[C@@H](CCc1ccc(C(F)(F)F)cc1)N1CCC(F)(F)[C@H](CC(=O)O)[C@H]1c1ccc(C(F)(F)F)cc1 (relative stereo) [Example 14, {1-(3,3-dimethyl-1-{2-[4-(trifluoromethyl)phenyl]ethyl}butyl)-4,4-difluoro-2-[4-(trifluoromethyl)phenyl]piperidin-3-yl}acetic acid] | 2 to 3 µM |
